Test results from US20220180963A1, “METHOD FOR SELECTING PATIENT SPECIFIC THERAPY” (YISSUM RESEARCH DEVELOPMENT COMPANY OF THE HEBREW …, priority 2018, published 2022).

What was measured:
Type in all cases: cell-based
MCF7 cells = assay: Survival of MCF7 cells after drug treatment (methylene blue); conditions: maximal killing, FIG. 14H
Experimental: Schematic figures of each unbalanced process are shown. […] For each cell line the combination of drugs predicted to target the complete unbalanced signaling signature was tested (marked with an asterix), as well as combinations that were predicted to only partially target the unbalanced signaling flux, each drug alone and taxol. […] Stain-free imaging was used to ensure equal loading.
Indeed, 4-OHT killed only up to 50% of the cells (FIG. 14H). […] Similar to the case in MDA468 cells, the double combination consisting of T and LY was expected to target all unbalanced processes in these cells, however since there are 4 distinct unbalanced processes that need to be targeted, addition of a third drug is apparently necessary to enhance the effect (FIG. 14G-I).

MDA-MB-231 cells = assay: Survival of MDA-MB-231 cells after drug treatment (methylene blue); conditions: FIG. 14B; for killing / survival of MDA231 cells: methylene blue survival
Text: (§1) FIG. 14A-I. Experimental validation of the approach (14A, 14D, 14G) Diagrams of signaling signatures of MDA-MB-231, MDA-MB-468 and MCF7 cells, according to SA based analysis. Schematic figures of each unbalanced process are shown. Drug predictions are indicated for each cell line, including the processes that they are predicted to target. (14B, 14E, 14H) Bar charts of survival rates in response to different treatments (as measured by methylene blue). For each cell line the combination of drugs predicted to target the complete unbalanced signaling signature was tested (marked with an asterix), as well as combinations that were predicted to only partially target the unbalanced signaling flux, each drug alone and taxol. For MDA468 a triple combination was tested as well (marked with two asterix signs, shown in the inset in FIG. 14E). […] Stain-free imaging was used to ensure equal loading. […] Bar chart inserts show quantified relative expression of the investigated protein.
To validate the approach, we analyzed a dataset comprising RPPA measurements from 10 cell lines, including breast, ovarian, and oesophageal cancer, and assigned a barcode and drug combinations to each cell line. The predictions were made such that for each cell line, at least one protein hub from every active unbalanced process will be inhibited, aiming to collapse the sample-specific altered signaling network. Three breast cancer cell lines were chosen for experimental validation: MDA-MB-231 (MD231), MDA-MB-468 (MD468), and MCF7. The two formers represent triple negative breast cancer (TNBC) against which no targeted therapy exists in clinics today. TNBC is often treated with non-specific chemotherapy, such as taxol^1. MCF7 represent luminal type A breast cancer, routinely treated with the ERα inhibitor, tamoxifen, and in some cases chemotherapy such as taxanes.

MDA-MB-468 cells = assay: Survival of MDA-MB-468 cells after drug treatment (methylene blue); conditions: maximal killing, FIG. 14E
Text: as §1
To validate the approach, we analyzed a dataset comprising RPPA measurements from 10 cell lines, including breast, ovarian, and oesophageal cancer, and assigned a barcode and drug combinations to each cell line. The predictions were made such that for each cell line, at least one protein hub from every active unbalanced process will be inhibited, aiming to collapse the sample-specific altered signaling network. […]

4-hydroxy tamoxifen [4-OHT]
cells killed (MCF7 cells): up to 50%

C#Cc1cccc(Nc2ncnc3cc(OCCOC)c(OCCOC)cc23)c1 [erlotinib]
killing / survival of MDA231 cells (MDA-MB-231 cells): no effect

CC(=O)O[C@H]1C(=O)[C@@]2(C)[C@H]([C@H](OC(=O)c3ccccc3)[C@]3(O)C[C@H](OC(=O)[C@H](O)[C@@H](NC(=O)c4ccccc4)c4ccccc4)C(C)=C1C3(C)C)[C@]1(OC(C)=O)CO[C@@H]1C[C@@H]2O [taxol]
cells killed (MDA-MB-468 cells): ~80% | concentration at which efficacy of the treatment plateaued (MDA-MB-231 cells): 100 nM | killing / survival of MDA231 cells (MDA-MB-231 cells): efficiently killed

CC(=O)Nc1cccc(-n2c(=O)n(C3CC3)c(=O)c3c(Nc4ccc(I)cc4F)n(C)c(=O)c(C)c32)c1 [trametinib]
concentration at which efficacy of the treatment plateaued (MDA-MB-231 cells): 100 nM
